The values that follow come from ChEMBL document CHEMBL3045786, “Insect antifeedant activity of tetranortriterpenoids from the Rutales. A perusal of structural relations” (2002).

In the assay the test system is Spodoptera litura. The experiment in a line: Feeding index against larvae of Spodoptera litura in castor leaves =.

In turn, `C/C=C(\C)C(=O)O[C@H]1C[C@@H](OC(C)=O)[C@@]2(C)CO[C@H]3[C@H]4O[C@@H]5C[C@@H](C6=CCOC6=O)C(C)=C5[C@@]4(C)[C@H](CC(=O)OC)[C@]1(C)[C@@H]32` [SALANNOBUTYROLACTONE] returned a PFI of 46.3%.
In the case of `CC(=O)O[C@@H]1C(=O)[C@H]2C(C)(C)C(=O)C=C[C@]2(C)[C@H]2CC[C@]3(C)C(=CC[C@H]3c3ccoc3)[C@]12C` [6-OXONIMONOL], the PFI is 44.2%.
With `C/C=C(\C)C(=O)O[C@H]1C[C@@H](OC(C)=O)[C@@]2(C)CO[C@H]3[C@@H](O)[C@@](C)([C@]45O[C@@]4(C)[C@H]4C[C@@H]5O[C@@H]5OC=C[C@@]54O)[C@@H]4[C@H](O)OC[C@@]14[C@@H]32` [AZADIRACHTIN-I] the figure was 32.2%; with `COC1=C2C(C)(C)C(=O)CC[C@]2(C)[C@H]2CC[C@@]3(C)[C@H](c4ccoc4)C[C@H]4O[C@]43[C@]2(C)C1=O` [DIHYDROCEDRELONE METHYL ETHER], 56.5%.
In the case of `C/C=C(\C)C(=O)O[C@@H]1[C@@H]2C=C3[C@@H]4CC(=O)O[C@@H](C5=CC(O)OC5=O)[C@]4(C)CC[C@@H]3[C@@](C)(C2=O)[C@@H]([C@@H](O)C(=O)OC)C1(C)C` (stereo not given in full) [SWIETENINE PP], the PFI was found to be 40.2%.
In turn, `CC1(C)C(=O)C=C[C@@]2(C)C1=C(O)C(=O)[C@]1(C)[C@@H]2CC[C@@]2(C)[C@H](C3=CC(O)OC3=O)C[C@H]3O[C@]321` (stereo not given in full) [CEDRELONE PP-OH] came in with a PFI of 22.4%.
With `CC(=O)O[C@@H]1C[C@H]2C(C)(C)C(=O)C=C[C@]2(C)[C@H]2CC[C@]3(C)C(=CC(=O)[C@H]3c3ccoc3)[C@@]21C` [AZADIRADIONE] the figure was 35.5%.
Under `CC(=O)O[C@@H]1C[C@H]2C(C)(C)CC(=O)C=C[C@]2(C)[C@H]2CC[C@]3(C)C(=CC[C@H]3c3ccoc3)[C@@]21C` [HOMOAZADIRADIONE] stands 60%; under `COC(=O)C[C@H]1[C@]2(C)C3=C(C)[C@H](C4=CCOC4=O)C[C@H]3O[C@@H]2[C@H](OC(C)=O)[C@@H]2[C@]1(C)C(=O)C=C[C@@]2(C)C(=O)OC` [NIMBIN MW], 42.9%.
Under `CC(=O)O[C@@H]1C[C@H]2C(C)(C)C(=O)C=C[C@]2(C)[C@H]2CC[C@]3(C)C(=CC(=O)[C@H]3C3=CC(O)OC3=O)[C@@]21C` (stereo not given in full) [AZADIRADIONE PP] stands 34.7%; under `COC(=O)C[C@H]1[C@]2(C)C3=C(C)[C@H](c4ccoc4)C[C@H]3O[C@@H]2[C@H](OC(C)=O)[C@@H]2[C@]1(C)C(=O)C=C[C@@]2(C)C(=O)OC` [NIMBIN], 33.7%.
Consider `CC(=O)OC1=C2C(C)(C)C(=O)[C@H]3O[C@H]3[C@]2(C)[C@H]2CC[C@@]3(C)[C@H](c4ccoc4)C[C@H]4O[C@]43[C@]2(C)C1=O` [CEDRELONEEPOXIDE ACETATE], for which the PFI turned out to be 53.2%.
With `CC1(C)C(=O)C=C[C@@]2(C)C1=C(O)C(=O)[C@]1(C)[C@@H]2CC[C@@]2(C)[C@H](c3ccoc3)C[C@H]3O[C@]321` [CEDRELONE] the figure was 51.5%; with `C/C=C(\C)C(=O)O[C@H]1C[C@@H](OC(C)=O)[C@@]2(C)CO[C@H]3[C@H]4O[C@@H]5CC(C6=CC(=O)OC6O)=C(C)C5[C@@]4(C)[C@H](CC(=O)OC)[C@]1(C)[C@@H]32` (stereo not given in full) [SALANNIN PP1], 29.1%; with `C/C=C(\C)C(=O)O[C@@H]1[C@@H]2C=C3[C@@H]4CC(=O)O[C@@H](c5ccoc5)[C@]4(C)CC[C@@H]3[C@@](C)(C2=O)[C@@H]([C@@H](O)C(=O)OC)C1(C)C` [SWIETENINE], 49.1%.
As for `CC(=O)O[C@@H]1C[C@@H](O)[C@@]2(C)[C@@H](C[C@@H](OC(C)=O)[C@@]3(C)C4=CC[C@@H](C5=C[C@@H](CC(C)C)O[C@@H]5O)[C@]4(C)C[C@@H](O)[C@@H]32)C1(C)C` [3R-ACETOXY-1R-HYDROXYAZADIRACHTOL], the PFI was determined as 4.2%.
Under `CC(=O)O[C@@H]1[C@H](O)[C@H]2C(C)(C)C(=O)C=C[C@]2(C)[C@H]2CC[C@]3(C)C(=CC[C@H]3c3ccoc3)[C@]12C` [NIMONOL] stands 47.3%.
In the case of `CC1(C)C(=O)CC[C@@]2(C)C1=C(O)C(=O)[C@]1(C)[C@@H]2CC[C@@]2(C)[C@H](c3ccoc3)C[C@H]3O[C@]321` [DIHYDROCEDRELONE], the PFI amounted to 50.5%.
The compound `CC(=O)O[C@@H]1C[C@H]2C(C)(C)C(=O)C=C[C@]2(C)[C@H]2CC[C@@]3(C)[C@H](C4=CC(O)OC4=O)C(=O)[C@H]4O[C@]43[C@@]21C` (stereo not given in full) [EPOXY AZADIRADIONE PP] yielded a PFI of 29.4%.
With `C/C=C(\C)C(=O)O[C@H]1C[C@@H](OC(C)=O)[C@@]2(C)CO[C@@H]3[C@@H](O)[C@@](C)([C@]45O[C@@]4(C)[C@H]4C[C@@H]5O[C@@H]5OC=C[C@@]54O)[C@H]4[C@]1(CO[C@]4(O)C(=O)OC)[C@@H]32` [AZADIRACHTIN-D] the figure was 28.9%; with `COC(=O)C[C@H]1[C@]2(C)C3=C(C)[C@H](C4=CCOC4=O)C[C@H]3O[C@@H]2[C@H](O)[C@@H]2[C@]1(C)C(=O)C=C[C@@]2(C)C(=O)OC` [DESACETYLNIMBIN MW], 35.1%.
Under `CC1(C)C(=O)C=C[C@@]2(C)C1=C(O)C(=O)[C@]1(C)[C@@H]2CC[C@@]2(C)[C@H](C3=CO[C@@H]4O[C@H]34)C[C@H]3O[C@]321` [CEDRELONE-22-EPOXIDE] stands 44.2%.
Under `COC(=O)[C@H]1OC[C@]23[C@@H]1[C@](C)([C@]14O[C@@]1(C)[C@H]1C[C@@H]4O[C@@H]4OC=C[C@@]41O)[C@H](O)[C@@H]1OC[C@](C(=O)OC)([C@H](O)C[C@@H]2O)[C@H]13` [AZADIRACHTOL] stands 6.1%; under `C/C=C(\C)C(=O)O[C@H]1C[C@@H](O)[C@@]2(C)CO[C@H]3[C@H]4O[C@@H]5C[C@@H](c6ccoc6)C(C)=C5[C@@]4(C)[C@H](CC(=O)OC)[C@]1(C)[C@@H]32` [DESACETYL SALANNIN], 44.67%; under `CC(=O)O[C@@H]1C[C@H]2C(C)(C)C(=O)C=C[C@]2(C)[C@H]2CC[C@@]3(C)[C@H](c4ccoc4)C(=O)[C@H]4O[C@]43[C@@]21C` [EPOXYAZADIRADIONE], 50.4%.
`C/C=C(\C)C(=O)O[C@H]1C[C@@H](OC(C)=O)[C@@]2(C(=O)OC)CO[C@H]3[C@@H](O)[C@@](C)([C@]45O[C@@]4(C)[C@H]4C[C@@H]5O[C@@H]5OC=C[C@@]54O)[C@@H]4[C@H](O)OC[C@@]14[C@@H]32` [AZADIRACHTIN H]: the PFI came to 30.5%.
With `CC(=O)O[C@@H]1[C@H](O)[C@H]2C(C)(C)C(=O)CC[C@]2(C)[C@H]2CC[C@]3(C)C(=CC[C@H]3C3=CC(O)OC3=O)[C@]12C` (stereo not given in full) [ISOMELDENIN PP] the figure was 28.3%.
With `CC1(C)C(=O)C=C[C@@]2(C)C1=C(O)C(=O)[C@@]1(C)C3=CC[C@@H](c4ccoc4)[C@]3(C)CC[C@@H]12` [DESEPOXYCEDRELONE] the figure was 55.3%.
With `CC(=O)O[C@@H]1C[C@H]2C(C)(C)C(=O)C=C[C@]2(C)[C@H]2CC[C@@]3(C)[C@H](c4ccoc4)OC(=O)[C@H]4O[C@]43[C@@]21C` [GEDUNIN] the figure was 37.3%; with `CC(=O)O[C@@H]1[C@H](O)[C@H]2C(C)(C)C(=O)C=C[C@]2(C)[C@H]2CC[C@@]3(C)[C@H](C4=CC(O)OC4=O)C[C@@H]4O[C@@]43[C@]12C` (stereo not given in full) [NIMONOLIDE], 21.3%.
